Patent publication US20260226086A1, “COMPOUNDS AND COMPOSITIONS AS STAT3 DEGRADERS AND USES THEREOF” (REGENTS OF THE UNIVERSITY OF MICHIGAN, priority 2023, published 2026)

Experiments:
STAT3 = target: T1, STAT3 (Homo sapiens, UniProt P40763); assay: HiBiT assay, STAT3 degradation in STAT3-HiBiT KI HeLa cells; assay type: cell-based; details: for Dmax at 1 µM / DC50: 24 h; for DC50: read-out: STAT3 Degradation (HeLa 24 h HiBit) DC50
T1 construct: This cell line is a clone created by using CRISPR-Cas9 to fuse HiBiT to the 3′ end of STAT3 in HeLa cells; host or cells: STAT3-HiBiT KI HeLa cell line (CRISPR-Cas9 knock-in clone)
Description: STAT3 degradation may be determined by HiBiT assay. STAT3-HiBiT KI HeLa cell line, which is a clone created by using CRTISPR-Cas9 to fuse HiBiT to the 3′ end of STAT3 in HeLa cells, may be used for this assay. In a typical procedure, cells seeded at certain amounts of cells (e.g., 20000 cells) per well are incubated with serially diluted compounds for certain period of time (e.g., 24 hours) under certain conditions (e.g., at 37° C. with 5% CO2). At the end of treatment, Nano-Glo HiBiT Lytic Detection reagents is added to the wells and luminescence is acquired on TECAN SPARK plate reader. Untreated cells are used as control. Data points are fit with a four-parameter equation to generate a concentration-response curve. IC50 values are calculated using a nonlinear regression analysis of the mean±SD from triplicate.
STAT3-HiBiT KI HeLa cell line was purchased from Promega. This cell line is a clone created by using CRISPR-Cas9 to fuse HiBiT to the 3′ end of STAT3 in HeLa cells. DMEM medium and FBS were purchased from Gibco/Thermo Fisher Scientific. STAT3 degradation was determined based on quantification of luminescent signal using Nano-Glo HiBiT Lytic Detection System. In a typical procedure, cells seeded at 20000 cells per well in 96-well white plates (Corning) were incubated with serially diluted compounds for 24 hours at 37° C. with 5% CO2. At the end of treatment, Nano-Glo HiBiT Lytic Detection reagents was added to the wells and luminescence was acquired on TECAN SPARK plate reader. Untreated cells were used as control. Data points were fit with a four-parameter equation to generate a concentration-response curve. IC50 values were calculated using a nonlinear regression analysis of the mean±SD from triplicate.

SUP-M2 cells = assay: CellTiter-Glo 2.0 cell viability assay, SUP-M2; assay type: cell-based; details: SUP-M2, 96 h, 4 days
Description: For example, cell viability may be determined by CellTiter-Glo 2.0 Cell Viability Assay. In a typical procedure, cells seeded at certain amounts of cells (e.g., 1000 cells) per well are incubated with serially diluted compounds for certain period (e.g., 4 days) under certain conditions (e.g., at 37° C. with 5% CO2). At the end of treatment, CellTiter-Glo 2.0 is added to the wells and luminescence is acquired on TECAN SPARK plate reader. Untreated cells are used as control, Data points are fit with an equation (e.g., a four-parameter equation) to generate a concentration-response curve. IC50 values are calculated using a nonlinear regression analysis of the mean±SD from triplicate.
SU-DHL-1 and SUP-M2 cell viability was determined by CellTiter-Glo 2.0 Cell Viability Assay (Promega). SU-DHL-1 cell line was purchased from ATCC (Manassas, VA) and SUP-M2 (ACC-509) was purchased from DSMZ (Germany). RPMI 1640 medium and fetal bovine serum (FBS) were purchased from Gibco/Thermo Fisher Scientific. In a typical procedure, cells seeded at 1000 cells per well in 384-well white plates (Corning) were incubated with serially diluted compounds for 4 days at 37° C. with 5% C02. At the end of treatment, CellTiter-Glo 2.0 was added to the wells and luminescence was acquired on TECAN SPARK plate reader. Untreated cells were used as control. Data points were fit with a four-parameter equation to generate a concentration-response curve. IC50 values were calculated using a nonlinear regression analysis of the mean±SD from triplicate.

T1 sequence (P40763 whole entry): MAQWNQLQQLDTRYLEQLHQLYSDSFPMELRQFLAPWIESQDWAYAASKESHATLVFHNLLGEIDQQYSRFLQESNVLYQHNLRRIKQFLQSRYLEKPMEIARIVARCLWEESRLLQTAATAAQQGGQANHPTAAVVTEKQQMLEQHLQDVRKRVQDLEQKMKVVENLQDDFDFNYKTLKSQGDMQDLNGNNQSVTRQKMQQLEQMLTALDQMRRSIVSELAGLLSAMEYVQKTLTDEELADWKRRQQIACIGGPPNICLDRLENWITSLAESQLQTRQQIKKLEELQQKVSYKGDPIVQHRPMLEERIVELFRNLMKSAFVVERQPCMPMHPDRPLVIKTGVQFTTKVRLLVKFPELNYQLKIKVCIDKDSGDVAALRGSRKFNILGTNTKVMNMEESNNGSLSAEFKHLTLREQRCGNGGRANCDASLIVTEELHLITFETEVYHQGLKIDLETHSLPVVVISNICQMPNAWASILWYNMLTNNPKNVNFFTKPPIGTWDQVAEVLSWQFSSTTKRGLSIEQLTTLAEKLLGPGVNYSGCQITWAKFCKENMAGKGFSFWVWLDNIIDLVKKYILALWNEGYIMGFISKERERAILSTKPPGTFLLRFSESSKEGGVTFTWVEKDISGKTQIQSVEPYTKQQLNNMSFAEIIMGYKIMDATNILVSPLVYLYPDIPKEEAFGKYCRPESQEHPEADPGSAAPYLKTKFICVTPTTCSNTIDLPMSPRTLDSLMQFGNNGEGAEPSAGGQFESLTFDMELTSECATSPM

| SMILES | Dmax at 1 µM (STAT3; @1 μM) [%] | DC50 (STAT3) [nM] | IC50 (SUP-M2 cells) [nM] | STAT3 Degradation (HeLa 24 h HiBit) Dmax (@1 μM) (STAT3; @1 μM) |
| --- | --- | --- | --- | --- |
| CCS(=O)(=O)c1ccc(CNC(=O)[C@H](CCC(N)=O)NC(=O)[C@@H]2CC[C@@H]3CCN(C(=O)CCCCCc4cn([C@H](C(=O)N5C[C@H](O)C[C@H]5C(=O)N[C@@H](COCCOCCOCCOC)c5ccc(-c6scnc6C)cc5)C(C)(C)C)nn4)C[C@H](NC(=O)c4cc5cc(C(=O)P(=O)(O)O)ccc5[nH]4)C(=O)N32)cc1 [Compound 45] | > 80 | 10 to 100 | 10 to 100 | – |
| CCS(=O)(=O)c1ccc(CNC(=O)[C@H](CCC(N)=O)NC(=O)[C@@H]2CC[C@@H]3CCN(C(=O)CCCCCc4cn([C@@H](C(=O)N5C[C@@H](O)C[C@@H]5C(=O)N[C@@H](C)c5ccc(-c6scnc6C)cc5)C5CCOCC5)nn4)C[C@H](NC(=O)c4cc5cc(C(=O)P(=O)(O)O)ccc5[nH]4)C(=O)N32)cc1 [Compound 29, (2-(((5S,8S,10aR)-8-(((S)-5-amino-1-((4-(ethylsulfonyl)benzyl)amino)-1,5-dioxopentan-2-yl)carbamoyl)-3-(6-(1-((R)-2-((2R,4S)-4-hydroxy-2-(((S)-1-(4-(4-methylthiazol-5-yl)phenyl)ethyl)carbamoyl)pyrrolidin-1-yl)-2-oxo-1-(tetrahydro-2H-pyran-4-yl)ethyl)-1H-1,2,3-triazol-4-yl)hexanoyl)-6-oxodecahydropyrrolo[1,2-a][1,5]diazocin-5-yl)carbamoyl)-1H-indole-5-carbonyl)phosphonic acid] | > 80 | < 10 | – | – |
| COCCOCCOC[C@H](NC(=O)[C@@H]1C[C@@H](O)CN1C(=O)[C@@H](n1cc(CCCc2cccc(OC[C@H](CCC(N)=O)NC(=O)[C@@H]3CC[C@@H]4CCN(C(C)=O)C[C@H](NC(=O)c5cc6cc(C(=O)P(=O)(O)O)ccc6[nH]5)C(=O)N43)c2Cl)nn1)C(C)(C)C)c1ccc(-c2scnc2C)cc1 [Compound 27, (2-(((5S,8S,10aR)-3-acetyl-8-(((S)-5-amino-1-(2-chloro-3-(3-(1-((S)-1-((2S,4R)-4-hydroxy-2-(((R)-2-(2-(2-methoxyethoxy)ethoxy)-1-(4-(4-methylthiazol-5-yl)phenyl)ethyl)carbamoyl)pyrrolidin-1-yl)-3,3-dimethyl-1-oxobutan-2-yl)-1H-1,2,3-triazol-4-yl)propyl)phenoxy)-5-oxopentan-2-yl)carbamoyl)-6-oxodecahydropyrrolo[1,2-a][1,5]diazocin-5-yl)carbamoyl)-1H-indole-5-carbonyl)phosphonic acid] | > 80 | < 10 | – | – |
| CCS(=O)(=O)c1ccc(CNC(=O)[C@H](CCC(N)=O)NC(=O)[C@@H]2CC[C@@H]3CCN(C(=O)CCCCCc4cn([C@H](C(=O)N5C[C@H](O)C[C@H]5C(=O)N[C@@H](COCCOCCOC)c5ccc(-c6scnc6C)cc5)C(C)(C)C)nn4)C[C@H](NC(=O)c4cc5cc(C(=O)P(=O)(O)O)ccc5[nH]4)C(=O)N32)cc1 [Compound 26] | > 80 | < 10 | – | – |
| CCS(=O)(=O)c1ccc(CNC(=O)[C@H](CCC(N)=O)NC(=O)[C@@H]2CC[C@@H]3CCN(C(=O)CCCCc4cn([C@@H](C(=O)N5C[C@H](O)C[C@H]5C(=O)N[C@H](C)c5ccc(-c6scnc6C)cc5)C5CCN(C(C)=O)CC5)nn4)C[C@H](NC(=O)c4cc5cc(C(=O)P(=O)(O)O)ccc5[nH]4)C(=O)N32)cc1 [Compound 22, (2-(((5S,8S,10aR)-3-(5-(1-((R)-1-(1-acetylpiperidin-4-yl)-2-((2S,4R)-4-hydroxy-2-(((R)-1-(4-(4-methylthiazol-5-yl)phenyl)ethyl)carbamoyl)pyrrolidin-1-yl)-2-oxoethyl)-1H-1,2,3-triazol-4-yl)pentanoyl)-8-(((S)-5-amino-1-((4-(ethylsulfonyl)benzyl)amino)-1,5-dioxopentan-2-yl)carbamoyl)-6-oxodecahydropyrrolo[1,2-a][1,5]diazocin-5-yl)carbamoyl)-1H-indole-5-carbonyl)phosphonic acid] | > 80 | < 10 | < 10 | – |
| COCCOCCOCCOC[C@H](NC(=O)[C@@H]1C[C@@H](O)CN1C(=O)[C@@H](n1cc(CCCc2cccc(OC[C@H](CCC(N)=O)NC(=O)[C@@H]3CC[C@@H]4CCN(C(C)=O)C[C@H](NC(=O)c5cc6cc(C(=O)P(=O)(O)O)ccc6[nH]5)C(=O)N43)c2Cl)nn1)C(C)(C)C)c1ccc(-c2scnc2C)cc1 [Compound 35, (2-(((5S,8S,10aR)-3-acetyl-8-(((S)-5-amino-1-(2-chloro-3-(3-(1-((S)-1-((2S,4R)-4-hydroxy-2-(((R)-13-(4-(4-methylthiazol-5-yl)phenyl)-2,5,8,11-tetraoxatridecan-13-yl)carbamoyl)pyrrolidin-1-yl)-3,3-dimethyl-1-oxobutan-2-yl)-1H-1,2,3-triazol-4-yl)propyl)phenoxy)-5-oxopentan-2-yl)carbamoyl)-6-oxodecahydropyrrolo[1,2-a][1,5]diazocin-5-yl)carbamoyl)-1H-indole-5-carbonyl)phosphonic acid] | > 80 | 10 to 100 | 10 to 100 | – |
| CCS(=O)(=O)c1ccc(CNC(=O)[C@H](CCC(N)=O)NC(=O)[C@@H]2CC[C@@H]3CCN(C(=O)CCCCCc4cn([C@@H](C(=O)N5C[C@@H](O)C[C@@H]5C(=O)N[C@@H](C)c5ccc(-c6scnc6C)cc5)C5CCCCC5)nn4)C[C@H](NC(=O)c4cc5cc(C(=O)P(=O)(O)O)ccc5[nH]4)C(=O)N32)cc1 [Compound 28, (2-(((5S,8S,10aR)-8-(((S)-5-amino-1-((4-(ethylsulfonyl)benzyl)amino)-1,5-dioxopentan-2-yl)carbamoyl)-3-(6-(1-((R)-1-cyclohexyl-2-((2R,4S)-4-hydroxy-2-(((S)-1-(4-(4-methylthiazol-5-yl)phenyl)ethyl)carbamoyl)pyrrolidin-1-yl)-2-oxoethyl)-1H-1,2,3-triazol-4-yl)hexanoyl)-6-oxodecahydro-pyrrolo[1,2-a][1,5]diazocin-5-yl)carbamoyl)-1H-indole-5-carbonyl)phosphonic acid] | > 80 | < 10 | – | – |
| CCS(=O)(=O)c1ccc(OC[C@H](CCC(N)=O)NC(=O)[C@@H]2CC[C@@H]3CCN(C(=O)CCCCc4cn([C@H](C(=O)N5C[C@H](O)C[C@H]5C(=O)N[C@@H](C)c5ccc(-c6scnc6C)cc5)C(C)(C)C)nn4)C[C@H](NC(=O)c4cc5cc(C(=O)P(=O)(O)O)ccc5[nH]4)C(=O)N32)cc1 [Compound 34, (2-(((5S,8S,10aR)-8-(((S)-5-amino-1-(4-(ethylsulfonyl)phenoxy)-5-oxopentan-2-yl)carbamoyl)-3-(5-(1-((S)-1-((2S,4R)-4-hydroxy-2-(((S)-1-(4-(4-methylthiazol-5-yl)phenyl)ethyl)carbamoyl)pyrrolidin-1-yl)-3,3-dimethyl-1-oxobutan-2-yl)-1H-1,2,3-triazol-4-yl)pentanoyl)-6-oxodecahydropyrrolo[1,2-a][1,5]diazocin-5-yl)carbamoyl)-1H-indole-5-carbonyl)phosphonic acid] | 60 to 80 | 10 to 100 | – | – |
| CCS(=O)(=O)c1ccc(CNC(=O)[C@H](CCC(N)=O)NC(=O)[C@@H]2CC[C@@H]3CCN(C(=O)CCCCCc4cn([C@H](C(=O)N5C[C@H](O)C[C@H]5C(=O)N[C@@H](COCCOCCOC)c5ccc(-c6scnc6C)cc5)C(C)(C)C)nn4)C[C@H](NC(=O)c4cc5cc(C(=O)P(=O)(O)O)ccc5[nH]4)C(=O)N32)cc1 [Compound 40] | – | 10 to 100 | 10 to 100 | A (A (>=80%)) |
| CC(=O)N1CC[C@H]2CC[C@@H](C(=O)N[C@@H](CCC(N)=O)COc3cccc(CCCc4cn([C@H](C(=O)N5C[C@H](O)C[C@H]5C(=O)N[C@@H](C)c5ccc(-c6scnc6C)cc5)C(C)(C)C)nn4)c3Cl)N2C(=O)[C@@H](NC(=O)c2cc3cc(C(F)(F)P(=O)(O)O)ccc3s2)C1 [Compound 44] | > 80 | < 10 | – | – |
